Laboratory results published in US11390664B2, “Antibodies that potently neutralize hepatitis B virus and uses thereof” (priority 2015, dated 2022).

B1: HBC34-v2: HBC34 variant, W107F in the CDR3 of the VH and W107A in the CDR3 of the VL (antibody, V domains shown)
VH: ELQLVESGGGWVQPGGSQRLSCAASGRIFRSFYMSWVRQAPGKGLEWVATINQDGSEKLYVDSVKGRFTISRDNAKNSLFLQMNNLRVEDTAVYYCAAFSGNSGGMDVWGQGTTVSVSS
VL: SYELTQPPSVSVSPGQTVSIPCSGDKLGNKNVCWFQHKPGQSPVLVIYEVKYRPSGIPERFSGSNSGNTATLTISGTQAMDEAAYFCQTADSTTVVFGGGTRLTVL

Legend:
[1] = tested on: HBV (genotype D); test: HBV spreading in humanized uPA/SCID mice, treatment from 3 weeks post-infection; format: in vivo, uPA/SCID mice repopulated with primary human hepatocytes; details: for cccDNA measurements versus mice sacrificed 3 weeks post HBV infection: treated from week 3 to week 9 post-infection
[2] = tested on: HBsAg serotypes (adw, ady and ayw); test: ELISA binding to HBsAg serotypes; design: species or system hepatitis B virus; details: similar and low EC50 values
[3] = tested on: antigenic loop region of the HBsAg; format: binding, hepatitis B virus; details: antibody at 1 μg/ml
[4] = tested on: HBV viral particles; test: Western blot on HBV viral particles under reducing conditions; format: binding, hepatitis B virus
Excerpt: Ab4 is a comparative antibody, which is also reactive against the antigenic loop.

[5] = tested on: 19 different HBsAg genotype D mutants; format: binding, hepatitis B virus; details: 5 μg/ml
[6] = tested on: HBV; test: HBV neutralization on differentiated HepaRG cells; format: cell-based, hepatitis B virus; details: HBC34 result at 5 and 0.5 μg/ml, antibodies tested at 5, 0.5 and 0.05 μg/ml
Description: At the end of the incubation, the cells were washed and further cultivated. Medium was changed every 3 days. Infection was detected by measuring in enzyme-linked immunosorbent assay (ELISA) the levels of hepatitis B surface antigen (HBsAg) and hepatitis B e antigen (HBeAg) secreted into the culture supernatant from day 7 to 11 post-infection and by detecting HBcAg staining in an immunofluorescence assay.

[7] = tested on: HBsAg (adw subtype); test: ELISA binding of HBC34 variants to HBsAg adw antigen; design: species or system hepatitis B virus; details: Example 11, 18 variants, FIG. 21

Row | Molecule | cccDNA measurements versus mice sacrificed 3 weeks post HBV infection [1] | binding to three HBsAg serotypes (adw, ady and ayw) [2] | decrease of levels of circulating HBsAg ([1]; baseline to week 6 of treatment (week 9 post-infection)) | binding to three additional peptides (SEQ ID NO 53, 54, 55) [3] | reactivity in western blot [4] | number of the 19 HBsAg mutants bound [5] | neutralization of HBV infection [6] | effect of mutation(s) on binding to HBsAg compared with parental HBC34 [7]
1 | C=C1[C@H](CO)[C@@H](O)C[C@@H]1n1cnc2c(=O)[nH]c(N)nc21 [entecavir, reference compound] | did not differ significantly |  |  |  |  |  |  | 
2 | HBC34: IgG1-type fully human monoclonal antibody against HBsAg antigenic loop; VH SEQ ID NO: 41, VL SEQ ID NO: 42 | did not differ significantly | binds with high affinity | > 1 log | recognized with a lower signal | does not react at all | 18 | neutralized completely | 
3 | B1 |  |  |  |  |  |  |  | completely abolished
